Experimental data: patent US8476025B2, “ATM-dependent phosphorylation of Sp1 is involved in the cellular response to DNA damage and enhances cellular survival after DNA damage” (Philadelphia Health and Education Corporation, priority 2007, dated 2013)
Like-named read-outs stand apart in the source and are kept apart here.

What was measured:
Sp1 phosphorylation [1] = conditions: NHDFs
Sp1 phosphorylation [2] = conditions: fibroblasts with wild-type ATM, one hour exposure
[3] = test system: Phosphorylation of Sp1 and H2AX; test: Immunoblot of H2O2-induced Sp1 and H2AX phosphorylation in NHDFs pretreated with wortmannin or KU55933; assay type: cell-based, human; conditions: 200 μM H2O2, pre-treatment with 10 μM KU55933
ATM kinase activity = test: Indirect immunofluorescence for γSp1^101 and phospho-ATMs1981 in UV-exposed U2OS cells; assay type: cell-based, human; conditions: 0.5 J/m^2 UV, pre-treated with 10 μM KU55933
Procedure: U2OS cells were plated onto glass coverslips 24-36 hours before treatment. […] U2OS cells were washed in ice-cold PBS twice and pre-extracted in 0.2% Triton X-100/30% ddH2O/20 mM PMSF in PBS for 5 minutes at 4° C. Cells were then washed with PBS and fixed in 2% Para-formaldehyde/3% sucrose in PBS for 10 minutes at room temperature. Cells were washed twice in PBS at room temperature then permeablized in 0.5% Triton X-100 in PBS for 5 minutes at 4° C. Cells were washed 2 times in room temperature PBST (0.1% Tween 20, 0.02% Sodium azide in PBS) and incubated in primary antibody overnight at 4° C., mouse monoclonal γH2AX (ser139, Upstate Biotechnology), diluted 1:1000 in PBST solution, mouse P-ATMser1981 (Cell Signalling, diluted 1:1000) or rabbit polyclonal γSp1^101 (diluted 1:500, 21st Century Biotechnology). Cells were washed in PBST three times followed by the addition of secondary antibody, AlexaFlour488 donkey anti-rabbit, diluted 1:1000 in PBST and AlexaFlour594 donkey anti-mouse antibody, diluted 1:1000 in PBST for 1 hours in the dark. Cells were washed 4 times with PBST. Slides were mounted using Vectashield mounting medium containing DAPI (Vector Labs).

[4] = test system: Sp1 phosphorylation at serine 101; assay type: cell-based, human; conditions: U2OS, 10 μM ATM inhibitor
[5] = assay type: cell-based, human; conditions: U2OS, 10 μM ATM inhibitor, 200 μM H2O2
ATM = ATM (Homo sapiens, UniProt Q13315); conditions: Hickson et al. 2004; cited from earlier work
U2OS cells = test: Clonogenic rescue experiment in Sp1-depleted U2OS cells exposed to H2O2; assay type: cell-based, human; conditions: H2O2 for one hour, colonies counted after 11 days
Procedure: In the case of the rescue experiment, U2OS cells were transfected with siRNA and replated 72 hours later. The cells were then transfected with WT Sp1 or Sp1-101A and 48 hours later cells were exposed to H2O2 and re-seeded onto 60 mm dishes. Colonies were fixed and stained in crystal violet 11 days after plating and then counted.

Sequence of ATM (Q13315 whole entry): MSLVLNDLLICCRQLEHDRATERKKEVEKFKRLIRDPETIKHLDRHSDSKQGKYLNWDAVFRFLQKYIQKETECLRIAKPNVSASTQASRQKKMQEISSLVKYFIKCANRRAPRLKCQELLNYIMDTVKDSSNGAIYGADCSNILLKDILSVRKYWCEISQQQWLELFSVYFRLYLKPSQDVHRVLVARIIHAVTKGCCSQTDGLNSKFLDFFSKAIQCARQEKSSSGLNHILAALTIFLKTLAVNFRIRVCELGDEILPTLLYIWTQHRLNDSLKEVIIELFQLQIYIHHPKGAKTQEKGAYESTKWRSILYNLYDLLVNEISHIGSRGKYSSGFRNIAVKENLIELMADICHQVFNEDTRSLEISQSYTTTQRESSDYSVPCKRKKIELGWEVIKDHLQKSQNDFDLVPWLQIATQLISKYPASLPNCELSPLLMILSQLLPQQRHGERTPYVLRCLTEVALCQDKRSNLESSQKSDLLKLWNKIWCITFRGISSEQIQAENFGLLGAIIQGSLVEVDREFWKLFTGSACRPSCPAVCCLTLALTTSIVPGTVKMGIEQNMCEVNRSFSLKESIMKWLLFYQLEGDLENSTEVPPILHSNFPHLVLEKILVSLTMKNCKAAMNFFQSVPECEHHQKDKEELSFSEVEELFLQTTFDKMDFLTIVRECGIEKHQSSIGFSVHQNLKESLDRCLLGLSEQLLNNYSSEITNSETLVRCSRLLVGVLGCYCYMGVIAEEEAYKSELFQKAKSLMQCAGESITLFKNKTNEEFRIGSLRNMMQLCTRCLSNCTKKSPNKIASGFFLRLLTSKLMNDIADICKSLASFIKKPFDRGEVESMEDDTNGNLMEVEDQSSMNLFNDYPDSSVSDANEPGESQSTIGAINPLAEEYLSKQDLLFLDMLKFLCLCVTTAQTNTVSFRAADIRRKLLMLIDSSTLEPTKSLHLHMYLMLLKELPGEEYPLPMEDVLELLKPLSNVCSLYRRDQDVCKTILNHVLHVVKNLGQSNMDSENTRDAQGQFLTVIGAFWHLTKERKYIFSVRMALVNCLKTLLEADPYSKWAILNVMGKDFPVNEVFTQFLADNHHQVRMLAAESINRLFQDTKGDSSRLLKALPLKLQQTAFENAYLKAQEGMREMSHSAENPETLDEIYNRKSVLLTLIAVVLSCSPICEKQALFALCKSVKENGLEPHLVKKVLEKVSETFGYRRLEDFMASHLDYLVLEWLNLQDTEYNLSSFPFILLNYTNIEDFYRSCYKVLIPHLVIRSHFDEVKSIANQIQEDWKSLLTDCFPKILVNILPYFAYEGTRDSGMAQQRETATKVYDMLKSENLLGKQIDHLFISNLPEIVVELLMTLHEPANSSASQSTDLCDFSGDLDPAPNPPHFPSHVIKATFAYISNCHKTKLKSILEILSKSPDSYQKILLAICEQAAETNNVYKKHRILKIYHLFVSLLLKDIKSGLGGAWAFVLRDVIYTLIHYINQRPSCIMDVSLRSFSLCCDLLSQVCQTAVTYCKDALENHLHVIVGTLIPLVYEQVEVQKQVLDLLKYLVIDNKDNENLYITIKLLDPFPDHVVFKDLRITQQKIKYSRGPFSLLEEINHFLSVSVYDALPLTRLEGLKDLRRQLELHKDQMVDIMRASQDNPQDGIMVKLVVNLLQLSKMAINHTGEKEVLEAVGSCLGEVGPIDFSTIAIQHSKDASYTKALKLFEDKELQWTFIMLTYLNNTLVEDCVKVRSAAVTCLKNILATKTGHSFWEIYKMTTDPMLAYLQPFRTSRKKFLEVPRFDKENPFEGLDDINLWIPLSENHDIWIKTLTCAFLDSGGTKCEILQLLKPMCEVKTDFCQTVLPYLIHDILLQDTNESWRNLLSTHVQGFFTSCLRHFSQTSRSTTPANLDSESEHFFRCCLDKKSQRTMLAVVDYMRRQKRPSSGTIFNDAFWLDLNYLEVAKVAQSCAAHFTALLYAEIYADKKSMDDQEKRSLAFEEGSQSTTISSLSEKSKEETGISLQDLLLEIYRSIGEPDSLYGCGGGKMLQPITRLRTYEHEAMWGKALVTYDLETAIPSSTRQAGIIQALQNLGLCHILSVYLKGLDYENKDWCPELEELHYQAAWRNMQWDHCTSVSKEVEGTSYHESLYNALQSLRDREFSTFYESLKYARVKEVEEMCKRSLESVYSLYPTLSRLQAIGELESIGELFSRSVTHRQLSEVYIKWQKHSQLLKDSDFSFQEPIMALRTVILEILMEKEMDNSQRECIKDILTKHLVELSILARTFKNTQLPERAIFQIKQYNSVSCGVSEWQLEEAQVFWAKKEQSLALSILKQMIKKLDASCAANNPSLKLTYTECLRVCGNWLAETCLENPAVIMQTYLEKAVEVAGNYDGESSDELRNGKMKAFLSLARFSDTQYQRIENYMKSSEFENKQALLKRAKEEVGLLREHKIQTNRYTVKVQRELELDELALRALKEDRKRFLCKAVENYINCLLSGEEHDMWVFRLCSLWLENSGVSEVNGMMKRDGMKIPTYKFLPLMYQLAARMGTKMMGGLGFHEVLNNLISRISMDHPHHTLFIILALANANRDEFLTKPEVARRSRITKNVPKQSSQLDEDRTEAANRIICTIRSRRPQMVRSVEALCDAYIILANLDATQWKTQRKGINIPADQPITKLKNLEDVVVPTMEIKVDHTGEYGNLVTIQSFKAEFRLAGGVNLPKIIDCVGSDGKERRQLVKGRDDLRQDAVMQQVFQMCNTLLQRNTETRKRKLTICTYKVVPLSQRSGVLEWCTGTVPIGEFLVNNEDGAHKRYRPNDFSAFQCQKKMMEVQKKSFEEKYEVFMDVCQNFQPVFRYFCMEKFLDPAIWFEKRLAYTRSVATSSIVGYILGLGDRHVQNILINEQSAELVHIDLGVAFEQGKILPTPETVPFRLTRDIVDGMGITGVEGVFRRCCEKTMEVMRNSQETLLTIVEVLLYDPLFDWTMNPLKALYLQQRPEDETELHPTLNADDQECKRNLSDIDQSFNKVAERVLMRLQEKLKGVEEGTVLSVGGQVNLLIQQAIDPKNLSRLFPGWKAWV

Compound: OO [H2O2, hydrogen peroxide]
- Time by which the 95 kDa form of Sp1 became the predominant species again (Sp1 phosphorylation [1]; 200 μM H2O2): ≤ 8 h
- Time of peak Sp1 phosphorylation (Sp1 phosphorylation [1]; 200 μM H2O2): one hour
- Time to first observed Sp1 phosphorylation post-treatment (Sp1 phosphorylation [1]; 200 μM H2O2): 15 min
- H2O2 concentration at which 105 kDa becomes the major Sp1 species (Sp1 phosphorylation [1]; one hour exposure): 200 µM
- H2O2 concentration at which the Sp1 shift to 105 kDa is detected (Sp1 phosphorylation [1]; one hour exposure): 50 µM
- H2O2 concentration at which Sp1 was shifted completely to the 105 kDa form (Sp1 phosphorylation [2]): 25 µM

Compound: O=c1cc(-c2cccc3c2Sc2ccccc2S3)oc(N2CCOCC2)c1 [KU55933]
- H2O2-induced phosphorylation of Sp1 and H2AX [3]: reduced but not abolished
- ATM phosphorylation at serine 1981 (ATM kinase activity): still phosphorylated
- γSp1^101 immunofluorescence signal (ATM kinase activity): lack of γSp1^101
- Electromobility shift in Sp1 from the 95 kDa to 105 kDa form ([4]; 200 μM H2O2 for one hour): blocked
- Phosphorylation of Sp1 at serine 101 ([4]; 200 μM H2O2 for one hour): abolished
- Overall electromobility shift of total Sp1 ([4]; 30 J/m^2 UV for four hours): partial reduction
- Phosphorylation of Sp1 at serine 101 ([4]; 30 J/m^2 UV for four hours): abolished
- Phosphorylation of H2AX [5]: diminished
- ATM kinase activity (ATM): inhibited

Compound: Sp1^S101A: exogenously expressed Sp1 mutant with serine 101 changed to Ala, not phosphorylated in response to damage
- Colony survival in response to H2O2 (U2OS cells): failed to rescue

Compound: wild-type Sp1: exogenously expressed wild-type Sp1 (SEQ ID NO: 2) with HA-tag, transfected in pFLAG-CMV2
- Colony survival in response to H2O2 (U2OS cells): restored survival to the level observed with non-targeting RNAi
